One data set has as its system HBV DNA replication. Nature of the data set: Effects on HBV DNA replication in 2.2.15 cells in culture (intracellular HBV DNA and HBV virion DNA). Conditions: ddC 25 μM. It counts as cell-based, hepatitis B virus.
Data set [1] deals with central and peripheral nervous system. Conditions: in vivo; cited from earlier work.
A further data set relates to hematopoietic cells. Conditions: cited from earlier work.
Where [2] appears, read: 24 hrs following the 9th day of treatment.

“And” between values parts separate entries of the source, which are not always exact repeats. Equal entries are not always repeated.

Turning to `Nc1ccn([C@H]2CC[C@@H](CO)O2)c(=O)n1` [ddC, 2',3'-dideoxycytidine, reference compound], in the data set on HBV DNA replication (setting [2]), the “Intracellular HBV DNA, Mono.” value was 1.1 pg/μg cell DNA and 1.2 pg/μg cell DNA and 0.8 pg/μg cell DNA and 1.0 pg/μg cell DNA; the “Intracellular HBV DNA, RI (Replicating Intermediate)” value is listed as 1 pg/μg cell DNA. Further, in the data set with HBV DNA replication (Day 0, before first dose), the “HBV Virion DNA, Day 0” value was 65 pg/ml culture medium and 70 pg/ml culture medium and 78 pg/ml culture medium and 60 pg/ml culture medium. Besides, in the data set on HBV DNA replication (Day 3), the “HBV Virion DNA, Day 3” value was 41 pg/ml culture medium and 33 pg/ml culture medium and 31 pg/ml culture medium and 40 pg/ml culture medium. For the same compound, the “HBV Virion DNA, Day 6” value in the data set with HBV DNA replication (Day 6) was 15 pg/ml culture medium and 13 pg/ml culture medium and 10 pg/ml culture medium and 12 pg/ml culture medium. Moreover, the “toxicity on the central and peripheral nervous system” value in data set [1] was “high toxicity on the central and peripheral nervous system”. For the same compound, the “toxicity on hematopoietic cells” value in the data set on hematopoietic cells is reported as “toxicity on hematopoietic cells”.

Values taken from US5929038A, “Pharmaceutical preparations which inhibit hepatitis B virus (HBV) replication” (Choongwae Pharmaceutical Co., Ltd., priority 1992, dated 1999).
